Laboratory results reported in patent US7371871B2, “Inhibitors of glutaminyl cyclase” (Probiodrug AG, priority 2003, dated 2008).

Tests used:
human QC [1] = molecular target: T1, human QC (Homo sapiens, UniProt Q16769); experiment: Inhibitor assay of glutaminyl cyclase (QC), determination of Ki-values; conditions: for inhibition of human QC (in words): Example 5
Method: Excitation/emission wavelengths were 320/410 nm. The assay reactions were initiated by addition of glutaminyl cyclase.
Reactions were carried out at 30° C. utilizing the NOVOStar reader for microplates (BMG labtechnologies). […] Excitation/emission wavelengths were 380/460 nm. The assay reactions were initiated by addition of glutaminyl cyclase. […] The kinetic data were evaluated using GraFit sofware.
The initial velocities were evaluated and the enzymatic activity was determined from a standard curve of ammonia under assay conditions. All samples were measured at 30° C., using either the [sequence]luor Plus or the Sunrise (both from TECAN) reader for microplates. Kinetic data was evaluated using GraFit software.
For inhibitor testing, the sample composition was the same as described above, except of the putative inhibitory compound added. […] For detailed investigations of the inhibition and determination of Ki-values, influence of the inhibitor on the auxiliary enzymes was investigated first.

human QC [2] = molecular target: T1, human QC; conditions: Busby, W. H. J. et al. 1987; cited from earlier work

T1 sequence (Q16769 29-361): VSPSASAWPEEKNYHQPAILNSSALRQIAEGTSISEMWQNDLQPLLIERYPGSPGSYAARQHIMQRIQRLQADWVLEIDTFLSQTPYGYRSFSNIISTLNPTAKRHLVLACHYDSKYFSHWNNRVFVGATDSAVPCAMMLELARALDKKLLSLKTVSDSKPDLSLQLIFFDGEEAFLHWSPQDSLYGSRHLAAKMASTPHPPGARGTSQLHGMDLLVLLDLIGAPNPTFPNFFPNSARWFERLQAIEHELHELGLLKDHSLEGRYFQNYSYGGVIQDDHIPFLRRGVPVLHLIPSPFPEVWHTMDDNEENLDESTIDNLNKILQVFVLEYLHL

Compound	inhibition of human QC (in words) (human QC [1])	inhibition of human QC detected (human QC [2])	other results
c1ccc(-n2ccnc2)cc1 [1-phenylimidazole]	inactive		
reduced 6-methylpterin		inhibition	
Cn1cnc(CCN)c1 [1-methyl-4-(β-amino-ethyl)-imi-dazole]	complete loss of inhibitory activity		
CC(=O)c1ccc(NC(=S)NCCCn2ccnc2)cc1 [Example 9]			Ki (human QC [1]): 1.79 µM
c1cnc2c(c1)ccc1cccnc12 [1,10-phenanthroline]		inhibition	
